Patent US8664234B2, “Dihydrobenzoquinazolinone M1 receptor positive allosteric modulators” (Merck Sharp & Dohme Corp., priority 2010, dated 2014)

Molecular target: T1, acetylcholine muscarinic M1 receptor (CHOnfat/hM1 cells) (Homo sapiens, UniProt P11229)
T1 construct: expressed in transfected cells; host or cells: CHOnfat cells (CHO; also called CHOK1/hM1)
T1 sequence (P11229 1-460): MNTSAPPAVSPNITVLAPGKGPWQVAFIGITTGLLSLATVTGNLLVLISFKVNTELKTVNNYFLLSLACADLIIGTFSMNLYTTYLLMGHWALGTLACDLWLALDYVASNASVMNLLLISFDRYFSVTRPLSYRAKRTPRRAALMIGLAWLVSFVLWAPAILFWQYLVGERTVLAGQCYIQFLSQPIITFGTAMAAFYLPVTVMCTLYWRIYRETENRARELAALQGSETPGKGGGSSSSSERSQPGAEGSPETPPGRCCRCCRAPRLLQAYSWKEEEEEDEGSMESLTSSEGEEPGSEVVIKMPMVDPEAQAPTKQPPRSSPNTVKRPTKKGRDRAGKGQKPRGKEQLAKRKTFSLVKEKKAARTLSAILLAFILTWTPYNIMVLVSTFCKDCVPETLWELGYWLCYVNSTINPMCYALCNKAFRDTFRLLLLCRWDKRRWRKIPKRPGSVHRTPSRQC
Test: FLIPR intracellular calcium assay for M1 positive allosteric modulator activity (acetylcholine EC20, 3 nM)
Assay type: cell-based
Details: 4 min preincubation, then EC20 acetylcholine (3 nM final), FLIPR Ca2+ readout, read-out: IP Value (inflection point)
Description: The assay studies the effect of one or several concentrations of test compounds on basal or acetylcholine-stimulated. Ca^2+ levels using FLJPR.
Compounds are prepared and subjected to a preincubation period of 4 min. Thereafter, a single EC20 concentration of acetylcholine is added to each well (3 nM final). The intracellular Ca^2+ level of each sample is measured and compared to an acetylcholine control to determine any modulatory activity.
Cells: CHOnfat/hM1, hM2, hM3 or hM4 cells are plated 24 hr before the assay at a density of 18,000 cells/well (100 μL) in a 384 well plate. CHOnfat/hM1 and CHOnfat/hM3 Growth Medium: 90% DMEM (Hi Glucose); 10% HI FBS; 2 mM L-glutamine; 0.1 mM NEAA; Pen-Strep; and 1 mg/ml Geneticin, are added. For M2Gqi5CHOnfat and M4Gqi5CHOnfat cells, an additional 600 ug/ml hygromycin is added.
Equipment: 384 well plate, 120 μL addition plate; 96-well Whatman 2 ml Uniplate Incubator, 37° C., 5% CO2; Skatron EMBLA-384 Plate Washer; Multimek Pipetting System; Genesis Freedom 200 System; Mosquito System; Temo Nanoliter Pipetting System; and FLIPR^384 Fluorometric Imaging Plate Reader System are used.
Buffers. Assay Buffer: Hanks Balanced Salt Solution, with 20 mM Hepes, 2.5 mM Probenecid (Sigma P-8761) first dissolved in 1 N NaOH, 1% Bovine Serum Albumin (Sigma A-9647). Dye Loading Buffer: Assay Buffer plus 1% Fetal Bovine Serum and Fluo-4AM/Pluronic Acid Mixture. 2 mM Fluo-4AM ester stock in DMSO (Molecular Probes F-14202) Concentration of 2 μM in buffer for a final concentration of 1 μM in Assay. 20% Pluronic Acid Solution stock, with concentration of 0.04% in Buffer, 0.02% in Assay.
65 μL of 2 mM Fluo-4AM are mixed with 130 μL of 20% Pluronic Acid. The resulting solution and 650 μL FBS is added to the assay buffer for a total volume of 65 mL. Positive Controls: 4-Br-A23187: 10 mM in DMSO; final concentration 10 μM. Acetylcholine: 10 mM in water, working stock at both 20 μM and 30 μM in assay buffer, final concentration of 10 μM. This is used to check the maximum stimulation of the CHOK1/hM1 cells, 20 μM (2×) acetylcholine is added in the preincubation part of the assay, and the 30 μM (3×) stock is added in the second part. (EC20) Acetylcholine: 10 mM in water, working stock of 9 nM (3×), and final concentration in assay is 3 nM. This is used after the preincubation with test compounds. Addition of the EC20 Acetylcholine to each well with a test compound will ascertain any modulator activity. 24 wells contain 3 nM Acetylcholine alone as a control.
Determining Activity of Putative Compounds:
Screening Plate Compounds are titrated in 96-well plates (columns 2-11), 100% DMSO, started at a concentration of 15 mM (150× stock concentration), and 3-fold serial dilutions using Genesis Freedom200 System. Four 96-well plates are combined into a 384-well plate using Mosquito Nanoliter Pipetting System by transferring 1 μl of serial diluted compounds to each well, and 1 mM acetylcholine (100× stock concentration) were added as a control. Using Temo, 49 μl assay buffer is added to each well of the 384-well plate right before assay.
In a 96-well Whatman 2 ml Uniplate, 9 nM Acetylcholine (3×) is pipetted into wells corresponding to the screening compounds, and into control wells. The 30 μM acetylcholine control (3×) is added into control wells, and the 3× agonist plate is transferred into a 384 well plate.
Cells are washed three times with 100 μL of buffer, leaving 30 μL of buffer in each well. Using Multimek, 30 μL of Dye Loading Buffer is added into each well and incubated at 37° C., 5% CO2 for up to one hr.
After 60 min, the cells are washed three times with 100 μL of buffer, leaving 30 μL of buffer in each well. The cell plate, screening plate, and agonist addition plates are placed on the platform in the FLIPR and the door closed. A signal test to check background fluorescence and basal fluorescence signal is performed. Laser intensity is adjusted if necessary. […]

SMILES	EC50 [nM]
Cn1ccc2c(Cc3cc4c(c5ccccc35)NCN([C@H]3CCOC[C@@H]3O)C4=O)cccc21 [Example 1, 1,5-Anhydro-2,3-dideoxy-3-{6-[(1-methyl-1H-indol-4-yl)methyl]-4-oxo-1,4-dihydrobenzo[h]quinazolin-3 (2H)-yl}-L-threo-pentitol]	15
CN1CN([C@H]2CCOC[C@@H]2O)C(=O)c2cc(Cc3ccc(Cl)nc3)c3ccccc3c21 [Example 2, 1,5-Anhydro-3-{6-[(6-chloropyridin-3-yl)methyl]-1-methyl-4-oxo-1,4-dihydrobenzo[h]quinazolin-3(2H)-yl}-2,3-dideoxy-L-threo-pentitol]	6.3
CSc1ccc(Cc2cc3c(c4ccccc24)NCN([C@H]2CCOC[C@@H]2O)C3=O)cn1 [Example 3, 1,5-Anhydro-2,3-dideoxy-3-[6-{[6-(methylsulfanyl)pyridin-3-yl]methyl}-4-oxo-1,4-dihydrobenzo[h]quinazolin-3(2H)-yl]-L-threo-pentitol]	11.5
Cc1ccc(Cc2cc3c(c4ccccc24)N(C)CN([C@H]2CCCC[C@@H]2O)C3=O)cn1 [Example 4, 3-[(1S,2S)-2-Hydroxycyclohexyl]-1-methyl-6-[(6-methylpyridin-3-yl)methyl]-2,3-dihydrobenzo[h]quinazolin-4(1H)-one]	4
CCCN1CN([C@H]2CCCC[C@@H]2O)C(=O)c2cc(Cc3ccc(C)nc3)c3ccccc3c21 [Example 5, 3-[(1S,2S)-2-Hydroxycyclohexyl]-6-[(6-methylpyridin-3-yl)methyl]-1-propyl-2,3-dihydrobenzo[h]quinazolin-4(1H)-one]	1170
CN1CN([C@H]2CCOC[C@@H]2O)C(=O)c2cc(Cc3ccnc(CF)c3)c3ccccc3c21 [Example 6, 1,5-Anhydro-2,3-dideoxy-3-[6-{[2-(fluoromethyl)pyridin-4-yl]methyl}-1-methyl-4-oxo-1,4-dihydrobenzo[h]quinazolin-3 (2H)-yl]-L-threo-pentitol]	2.7
CN1CN([C@H]2CCOC[C@@H]2O)C(=O)c2cc(Cc3ccnc(C(F)F)c3)c3ccccc3c21 [Example 7, 1,5-anhydro-2,3-dideoxy-3-[6-{[2-(difluoromethyl)pyridin-4-yl]methyl}-1-methyl-4-oxo-1,4-dihydrobenzo[h]quinazolin-3(2H)-yl]-L-threo-pentitol]	2.6
